This note sets out measurements from paper PMC8172577, “A Novel Antimicrobial Peptides From Pine Needles of Pinus densiflora Sieb. et Zucc. Against Foodborne Bacteria” (Frontiers in Microbiology, 2021).

Converted amounts (≈) assume the structure as drawn. Like-named read-outs stand apart in the source and are kept apart here. Where no end group is shown, it is not given here.

Holding throughout (format): cell-based
Series [1] has as its system Escherichia coli ATCC25922. The settings on record: minimal concentration of peptide to inhibit microbial growth; 5 × 10^5 CFU/ml, 18 h at 37°C, OD 600 nm. How it is done: (§1) For antimicrobial assays, Escherichia coli ATCC 25922, Pseudomonas aeruginosa ATCC 15692, Staphylococcus aureus ATCC 25923, and Staphylococcus epidermidis ATCC 12228 were obtained from the American Type Culture Collection (Manassas, VA, United States). Salmonella typhimurium KCTC 1926 and Listeria monocytogenes KCTC 3710 were obtained from the Korean Collection for Type Cultures (Jeollabuk-do, Korea).
(§2) Minimum inhibitory concentrations (MICs) of purified PN peptides were assayed according to the Clinical and Laboratory Standards Institute recommendations ([Wiegand et al., 2008]). Briefly, bacterial suspension (5 × 10^5 CFU/ml), obtained by diluting an exponential growth phase culture, was then added into the 96-well plates containing 2-fold serial dilutions of each fraction, the plates were incubated for 18 h at 37°C. MICs of PN peptides were measured in optical density at 600 nm using Versamax™ ELISA Microplate Reader (Molecular Devices, Sunnyvale, CA, United States). PBS, culture media, and melittin were used as growth and growth inhibition controls. The MIC was defined as the lowest concentration of PN peptide that was able to inhibit microbial growth.

Series [2] has as its system Listeria monocytogenes KCTC3710. The note with it: minimal concentration of peptide to inhibit microbial growth; 5 × 10^5 CFU/ml, 18 h at 37°C, OD 600 nm. How it is done: as §1, §2
Series [3] concerns Salmonella typhimurium KCTC1926. The settings on record: minimal concentration of peptide to inhibit microbial growth; 5 × 10^5 CFU/ml, 18 h at 37°C, OD 600 nm. How it is done:
as §1, §2

For series [4], the system named is Staphylococcus aureus ATCC25923. The note with it: for Increased in MIC (fold): compared to the soluble extract. How it is done: as §1, §2
The subject of series [5] is mouse red blood cells (mRBCs). The series can be described thus: Hemolytic activity. The settings on record: 60 min at 37°C. How it is done:
Hemolysis was determined using the mouse red blood cells (mRBCs). Fresh mRBCs were collected in PBS and washed three times with PBS (final mRBC concentration, 8% v/v). […] Hemolytic activity was monitored at an absorbance (A) of 414 nm and calculated as a positive control [0.1% Triton X-100 (Atriton)] and negative control [PBS (Ablank)]. The resulting values of cells that underwent hemolysis were calculated according to equation ([Park et al., 2008]):
(1) Hemolysis=[(Asample−Ablank)/(Atriton−Ablank)]×100%

The subject of series [6] is RAW264.7 (mouse macrophages) cells. The series can be described thus: Cytotoxicity, MTT assay, RAW264.7. The note with it: 12.5 μg/ml, 24 h. How it is done: (§3) The cytotoxic effect of PN peptides was assessed against HaCaT (human keratinocytes) and RAW264.7 (mouse macrophages) cells cultured in 96-well plates at a density of 2 × 10^4 cells/well in Dulbecco’s modified Eagle medium (DMEM) containing 10% fetal bovine serum. MTT [3-(4,5-dimethylthiazol-2-yl)-2,5-diphenyltetrazolium bromide] assays were used to evaluate cytotoxicity. PN peptides (0–200 μg/ml) were added with the cells for 24 h at 37°C. Subsequently, MTT (0.5 mg/ml) was added to each well and incubated for 4 h at 37°C After incubation, formazan crystals produced was dissolved in dimethyl sulfoxide, and the absorbance at 570 nm was measured and cytotoxicity was determined as a percentage of 100% cytotoxic control (0.1% Triton X-100; [Park et al., 2008]). Melittin was used as the control (reference) peptide.
Background: Tetrazolium assays rely on reduction of a dye to a coloured formazan, in cell work by metabolically active cells.

Series [7] relates to HaCaT (human keratinocytes) cells. The series can be described thus: Cytotoxicity, MTT assay, HaCaT. How it is done: as §3
The mark [8] stands for this setting: minimal concentration of peptide to inhibit microbial growth, 5 × 10^5 CFU/ml, 18 h at 37°C, OD 600 nm.

One may read the MIC as the lowest concentration found to suppress growth. Higher therefore signals a need for much substance.

Consider FKFLARTGKFL-NH2 [PN5-NH2], for which the MIC was 64 mg/L in series [1], 32 mg/L in series [2], 32 mg/L in series [3] and 16 mg/L in series [4] (setting [8]).

In the case of `CC[C@H](C)[C@H](NC(=O)CN)C(=O)NCC(=O)N[C@@H](C)C(=O)N[C@H](C(=O)N[C@@H](CC(C)C)C(=O)N[C@@H](CCCCN)C(=O)N[C@H](C(=O)N[C@@H](CC(C)C)C(=O)N[C@H](C(=O)N[C@H](C(=O)NCC(=O)N[C@@H](CC(C)C)C(=O)N1CCC[C@H]1C(=O)N[C@@H](C)C(=O)N[C@@H](CC(C)C)C(=O)N[C@H](C(=O)N[C@@H](CO)C(=O)N[C@@H](Cc1c[nH]c2ccccc12)C(=O)N[C@H](C(=O)N[C@@H](CCCCN)C(=O)N[C@@H](CCCNC(=N)N)C(=O)N[C@@H](CCCCN)C(=O)N[C@@H](CCCNC(=N)N)C(=O)N[C@@H](CCC(N)=O)C(=O)N[C@@H](CCC(N)=O)C(N)=O)[C@@H](C)CC)[C@@H](C)CC)[C@@H](C)O)[C@@H](C)O)C(C)C)C(C)C` [Melittin, reference compound], the MIC amounted to 4 mg/L (≈ 1.41 µM) in series [2] and 2 mg/L (≈ 0.703 µM) in series [3]. Also, the “hemolysis at the lowest concentration” value in series [5] (3 μg/ml, 8% v/v mRBCs) is reported as “induced hemolysis”. Also, the “lysis (cytotoxicity)” value in series [6] is 100%; in series [7] (12.5 μg/ml, 24 h), 100%.

For FKFLARTGKFL [PN5], the MIC in series [1] amounted to 64 mg/L; in series [2] it was 32 mg/L; in series [3] it was 64 mg/L; in series [4] (setting [8]), 32 mg/L. In series [5] (200 μg/ml, 8% v/v mRBCs in PBS, A414, vs 0.1% Triton X-100, n = 3), the hemolysis entry was “approximately 5%”. Moreover, the cytotoxicity in series [7] (200 μg/ml, 24 h at 37°C, vs 0.1% Triton X-100, n = 3) worked out at 19%.

Turning to “FKFLARTGKFL [PN-#5, peptide purified from pine needles of Pinus densiflora by RP-HPLC, peak 5]”, the MIC was determined as 64 mg/L in series [1]; 32 mg/L in series [2]; 64 mg/L in series [3]; 600 mg/L in series [4] (fraction after First C18 RP-HPLC, S. aureus ATCC25923); 32 mg/L in series [4] (fraction after Second C18 RP-HPLC, S. aureus ATCC25923); 32 mg/L in series [4] (setting [8]). The “Increased in MIC (fold)” value in series [4] (after First C18 RP-HPLC) was 12.5 fold; in series [4] (after Second C18 RP-HPLC), 234.4 fold.
